The results in this text go back to patent US11225480B2, “Malic enzyme inhibitors” (SUN PHARMA ADVANCED RESEARCH COMPANY LTD, priority 2019, dated 2022).

For this assay, the target named is T1, human ME3 enzyme (Homo sapiens, UniProt Q16798).
T1 sequence (Q16798 1-604): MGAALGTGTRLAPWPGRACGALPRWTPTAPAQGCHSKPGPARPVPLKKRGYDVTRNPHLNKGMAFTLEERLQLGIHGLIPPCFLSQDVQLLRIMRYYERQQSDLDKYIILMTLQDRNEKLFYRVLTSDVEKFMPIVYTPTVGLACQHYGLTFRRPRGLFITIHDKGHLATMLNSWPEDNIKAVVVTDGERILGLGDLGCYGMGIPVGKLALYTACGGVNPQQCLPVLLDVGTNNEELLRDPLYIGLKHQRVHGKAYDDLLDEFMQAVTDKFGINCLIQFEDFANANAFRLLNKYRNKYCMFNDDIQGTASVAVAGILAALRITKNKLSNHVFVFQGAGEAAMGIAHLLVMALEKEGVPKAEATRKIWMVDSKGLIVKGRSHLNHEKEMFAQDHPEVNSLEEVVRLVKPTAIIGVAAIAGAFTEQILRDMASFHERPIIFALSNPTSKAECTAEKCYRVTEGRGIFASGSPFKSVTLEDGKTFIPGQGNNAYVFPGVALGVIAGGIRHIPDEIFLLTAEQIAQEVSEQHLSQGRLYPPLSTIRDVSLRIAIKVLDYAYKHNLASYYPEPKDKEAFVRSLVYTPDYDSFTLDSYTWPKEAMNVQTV
Description: ME3 inhibition assay (diaphorase/resazurin coupled fluorescence). Type of assay: biochemical. To be noted: 10 μM compound concentration; read-out: Malic Enzyme 3 % inhibition (10 μM). On the procedure:
ME3 catalyzes the oxidative decarboxylation of malate to pyruvate with conversion of the co-factor β-NADP+ to NADPH. In the fluorescence assay, a coupled reaction is set up wherein an enzyme, Diaphorase, utilizes NADPH generated by ME3, to convert the dye resazurin to a fluorescent molecule resorufin.
The enzyme activity inhibition assay is set up in a 200 μL final reaction volume in a 96-well plate. As per the experimental design, 2 μL of the test compounds at 100× the desired concentration (10 μM) in DMSO were added to the respective wells with 178 μL of assay buffer (50 mM Tris-HCl pH 7.5, 10 mM MnCl2, 3 mM L-malate, 50 μM Resazurin and 0.025 mg/ml Diapharose). The 96-well plate was incubated on a plate shaker at room temperature for 15 minutes protected from light. The well contents were gently mixed by adding 10 μL of 20 nM human ME3 enzyme to the wells and the plate was incubated on a shaker at room temperature for 5 minutes protected from light. Suitable enzyme only and no enzyme controls were included in the experiment. The enzyme reaction was started by adding 10 μL of 1 mM D-NADP+. The reaction was gently mixed and the plate was initially left on a shaker at room temperature for ˜7 minutes protected from light. Later, the plate was incubated without shaking at room temperature for 3 hours. At the end of 3 hours, the fluorescence of the wells was measured at excitation 540 nm and emission 600 nm.
For orientation: Alamar Blue is a resazurin reagent that responds to reducing activity.

By inhibition is commonly meant the percentage by which the read-out fell short of the control. Turning to `COCCN1CCC(C(=O)N2CCN(c3ccc(O)cc3)CC2)CC1` [I.7, [4-(4-Hydroxy-phenyl)-piperazin-1-yl]-[1-(2-methoxy-ethyl)-piperidin-4-yl]-methanone], the inhibition at 10 µM is above 90%.

Regarding `O=C(c1n[nH]c2ccccc12)N1CCN(c2ccc(O)cc2)CC1` [I.8, [4-(4-Hydroxy-phenyl)-piperazin-1-yl]-(1H-indazol-3-yl)-methanone], the inhibition at 10 µM is above 90%.

With `COCCOc1ccc2[nH]cc(C(=O)N3CCN(c4ccc(O)cc4)CC3)c2c1` [I.10, [4-(4-Hydroxy-phenyl)-piperazin-1-yl]-[5-(2-methoxy-ethoxy)-1H-indol-3-yl]-methanone], the inhibition at 10 µM is above 90%.

For the molecule `CCCCOc1ccc(/C=C/C(=O)N2CCN(c3ccc(O)cc3)CC2)cc1` [I.12, 3-(4-Butoxy-phenyl)-1-[4-(4-hydroxy-phenyl)-piperazin-1-yl]-propenone], the inhibition at 10 µM is above 90%.

As to `CCCCOc1ccc(CCC(=O)N2CCN(c3ccc(O)cc3)CC2)cc1` [I.13, 3-(4-Butoxy-phenyl)-1-[4-(4-hydroxy-phenyl)-piperazin-1-yl]-propan-1-one], the inhibition at 10 µM is above 90%.

As for `CCCCOc1ccc2[nH]cc(C(=O)N3CCN(c4ccc(O)cc4)CC3)c2c1` [I.14, (5-Butoxy-1H-indol-3-yl)-[4-(4-hydroxy-phenyl)-piperazin-1-yl]-methanone], the inhibition at 10 µM is above 90%.

`O=C(c1cn(Cc2ccccc2)c2ccccc12)N1CCN(c2ccc(O)cc2)CC1` [I.15, (1-Benzyl-1H-indol-3-yl)-[4-(4-hydroxy-phenyl)-piperazin-1-yl]-methanone]: the inhibition at 10 µM is above 90%.

As for `CC(=O)N[C@@H](Cc1ccccc1)C(=O)N1CCN(c2ccc(O)cc2)CC1` [I.16, N-{(1S)-1-Benzyl-2-[4-(4-hydroxy-phenyl)-piperazin-1-yl]-2-oxoethyl}-acetamide], the inhibition at 10 µM is above 90%.

As for `O=C(C(=O)N1CCN(c2ccc(O)cc2)CC1)c1ccccc1` [I.17, 1-[4-(4-hydroxyphenyl)-piperazin-1-yl]-2-phenyl-ethane-1,2-dione], the inhibition at 10 µM is above 90%.

`CCCCn1cc(C(=O)N2CCN(c3ccc(O)cc3)CC2)c2ccccc21` [I.18, (1-Butyl-1H-indol-3-yl)-[4-(4-hydroxy-phenyl)-piperazin-1-yl]-methanone]: the inhibition at 10 µM is above 90%.

For the molecule `CC(=O)N[C@@H](C(=O)N1CCN(c2ccc(O)cc2)CC1)c1ccccc1` [I.19, N-{(1R)-2-[4-(4-Hydroxy-phenyl)-piperazin-1-yl]-2-oxo-1-phenyl-ethyl}acet-amide], the inhibition at 10 µM is above 90%.

For the molecule `O=C(c1cc(-c2ccccc2)nc(-c2ccccc2)c1)N1CCN(c2ccc(O)cc2)CC1` [I.20, (2,6-diphenyl-4-pyridyl)-[4-(4-hydroxyphenyl)piperazin-1-yl]methanone], the inhibition at 10 µM was above 90%.

`O=C(c1cc2ccccc2c2ccccc12)N1CCN(c2ccc(O)cc2)CC1` [I.22, [4-(4-Hydroxy-phenyl)-piperazin-1-yl]-phenanthren-9-yl-methanone]: the inhibition at 10 µM was above 90%.

Regarding `O=C(CCc1ccc2ccccc2c1)N1CCN(c2ccc(O)cc2)CC1` [I.23, 1-[4-(4-Hydroxy-phenyl)-piperazin-1-yl]-3-naphthalen-2-yl-propan-1-one], the inhibition at 10 µM is above 90%.

Take `O=C(c1cnc2ccccc2c1)N1CCN(c2ccc(O)cc2)CC1` [I.24, [4-(4-Hydroxy-phenyl)-piperazin-1-yl]-quinolin-3-yl-methanone]: the inhibition at 10 µM is above 90%.

For the molecule `O=C(c1cccc2cc3ccccc3cc12)N1CCN(c2ccc(O)cc2)CC1` [I.25, Anthracen-1-yl-[4-(4-hydroxy-phenyl)-piperazin-1-yl]-methanone], the inhibition at 10 µM is above 90%.

`O=C(c1cccc2c1ccn2Cc1ccccc1)N1CCN(c2ccc(O)cc2)CC1` [I.26, (1-benzylindol-4-yl)-[4-(4-hydroxyphenyl)piperazin-1-yl]methanone]: the inhibition at 10 µM was above 90%.

As for `O=C(c1cc(-c2ccccc2)cc(-c2ccccc2)c1)N1CCN(c2ccc(O)cc2)CC1` [I.27, (3,5-Diphenyl-phenyl)-[4-(4-hydroxy-phenyl)-piperazin-1-yl]methanone], the inhibition at 10 µM was above 90%.

As to `O=C(c1cccn2ccnc12)N1CCN(c2ccc(O)cc2)CC1` [I.29, [4-(4-Hydroxy-phenyl)-piperazin-1-yl]-imidazo[1,2-a]124yridine-8-yl-methanone], the inhibition at 10 µM was above 90%.

`O=C(c1cccc2[nH]ccc12)N1CCN(c2ccc(O)cc2)CC1` [I.30, [4-(4-Hydroxy-phenyl)-piperazin-1-yl]-(1H-indol-4-yl)-methanone]: the inhibition at 10 µM is above 90%.

Consider `O=C(c1cccn2c(-c3ccc(C(F)(F)F)cc3)cnc12)N1CCN(c2ccc(O)cc2)CC1` [I.31, [4-(4-hydroxy-phenyl)-piperazin-1-yl]-[3-(4-trifluoromethyl-phenyl)-imidazo[1,2-a]pyridin-8-yl]-methanone], for which the inhibition at 10 µM is above 90%.

For `O=C(O)c1cc(N2CCN(C(=O)Cc3ccccc3)CC2)ccc1O` [I.32, 2-hydroxy-5-(4-phenylacetyl-piperazin-1-yl)-benzoic acid], the inhibition at 10 µM was 70 to 89%.

As to `O=C(c1cc(-c2ccccc2)nc(N2CCOCC2)c1)N1CCN(c2ccc(O)cc2)CC1` [I.33, [4-(4-Hydroxy-phenyl)-piperazin-1-yl]-(2-morpholino-6-phenyl-4-pyridyl)-methanone], the inhibition at 10 µM is above 90%.

As for `O=C(c1ccnc(-c2ccccc2)c1)N1CCN(c2ccc(O)cc2)CC1` [I.34, [4-(4-Hydroxy-phenyl)-piperazin-1-yl]-(2-phenyl-4-pyridyl)-methanone], the inhibition at 10 µM is above 90%.

As for `O=C(c1ccnc(N2CCOCC2)c1)N1CCN(c2ccc(O)cc2)CC1` [I.35, [4-(4-Hydroxy-phenyl)-piperazin-1-yl]-(2-morpholino-4-pyridyl)-methanone], the inhibition at 10 µM is above 90%.

Regarding `O=C(c1cc(Cl)nc(N2CCOCC2)c1)N1CCN(c2ccc(O)cc2)CC1` [I.36], the inhibition at 10 µM is above 90%.

As for `N#Cc1cc(N2CCN(C(=O)c3cc(-c4ccccc4)nc(-c4ccccc4)c3)CC2)ccc1O` [I.37, 5-[4-(2,6-diphenylpyridine-4-carbonyl)piperazin-1-yl]-2-hydroxy-benzonitrile], the inhibition at 10 µM was 50 to 69%.

For `O=C(O)c1cc(N2CCN(C(=O)c3cc(-c4ccccc4)nc(-c4ccccc4)c3)CC2)ccc1O` [I.38, 5-[4-(2,6-Diphenyl-pyridine-4-carbonyl)-piperazin-1-yl]-2-hydroxy-benzoic acid], the inhibition at 10 µM is above 90%.

For the molecule `O=C(c1ccc(Cl)s1)N1CCN(c2ccc(O)cn2)CC1` [I.76, (5-Chloro-thiophen-2-yl)-[4-(5-hydroxy-pyridin-2-yl)-piperazin-1-yl]-methanone], the inhibition at 10 µM was above 90%.

For `O=C(/C=C/c1ccc([N+](=O)[O-])cc1)N1CCN(c2ccc(O)cn2)CC1` [I.77, (E)-1-[4-(5-Hydroxy-pyridin-2-yl)-piperazin-1-yl]-3-(4-nitro-phenyl)-propenone], the inhibition at 10 µM is above 90%.

Turning to `O=C(/C=C/c1ccc(Cl)cc1)N1CCN(c2ccc(O)cn2)CC1` [I.78, (E)-3-(4-Chlorophenyl)-1-[4-(5-hydroxy-pyridin-2-yl)-piperazin-1-yl]-propenone], the inhibition at 10 µM is above 90%.

`Cc1cn(-c2cc(C(=O)N3CCN(c4ccc(O)cn4)CC3)cc(C(F)(F)F)c2)cn1` [I.81, [4-(5-Hydroxy-pyridin-2-yl)-piperazin-1-yl]-[3-(4-methyl-imidazol-1-yl)-5-trifluoro-methylphenyl]-methanone]: the inhibition at 10 µM was above 90%.

On to `Cc1ccc(C(=O)N2CCN(c3ccc(O)cn3)CC2)cc1Nc1nccc(-c2cccnc2)n1` [I.85, [4-(5-hydroxy-pyridin-2-yl)-piperazin-1-yl]-[4-methyl-3-(4-pyridin-3-yl-pyrimidin-2-ylamino)-phenyl]-methanone], for which the inhibition at 10 µM was above 90%.

With `O=C(c1nc2ccccc2[nH]1)N1CCN(c2ccc(O)cn2)CC1` [I.86, (1H-Benzo-imidazol-2-yl)-[4-(5-hydroxy-pyridin-2-yl)-piperazin-1-yl]-methanone], the inhibition at 10 µM was above 90%.

As for `O=C(c1ccc(Br)s1)N1CCN(c2ccc(O)cn2)CC1` [I.87, (5-Bromo-thiophen-2-yl)-[4-(5-hydroxy-pyridin-2-yl)-piperazin-1-yl]-methanone], the inhibition at 10 µM was above 90%.
